Experimental data taken from PMC1142193 (Evidence-based Complementary and Alternative Medicine, 2005).
“Also recorded” adds a separate entry of the source.

Molecular target: SARS-CoV 3CL^Pro (Severe acute respiratory syndrome coronavirus, UniProt P0C6U8)
Assay: biochemical
Assay type: biochemical
Settings: for IC50: IC50, inhibition of SARS 3CL^Pro activity

Row | Structure (SMILES) | Inhibition of 3CL^Pro activity (in words) | Inhibition of 3CL^Pro activity at concentrations up to 100 µM (in words) | IC50 [µM]
1 | Cn1c(=O)c2c(ncn2C)n(C)c1=O [Caffeine, caffeine, reference compound] | did not inhibit; also recorded: did not influence 3CL^Pro activity | not able to inhibit | 
2 | Oc1cc(O)c2c(c1)O[C@H](c1ccc(O)c(O)c1)[C@H](O)C2 [EC, epicatechin] | did not inhibit | not able to inhibit | ≥ 100
3 | O=C(O[C@@H]1Cc2c(O)cc(O)cc2O[C@@H]1c1ccc(O)c(O)c1)c1cc(O)c(O)c(O)c1 [ECg, epicatechin gallate] | did not inhibit | not able to inhibit | ≥ 100
4 | Oc1cc(O)c2c(c1)O[C@H](c1cc(O)c(O)c(O)c1)[C@H](O)C2 [EGC, epigallocatechin] | did not inhibit | not able to inhibit | ≥ 100
5 | O=c1c(O)cc([C@H]2Oc3cc(O)cc(O)c3C[C@H]2O)cc2c([C@H]3Oc4cc(O)cc(O)c4C[C@H]3O)cc(O)c(O)c12 [TF1, Theaflavin] | found to inhibit 3CL^Pro |  | 56
6 | Cn1c(=O)c2[nH]cnc2n(C)c1=O [Theophylline, theophylline, reference compound] | did not inhibit; also recorded: did not influence 3CL^Pro activity | not able to inhibit | 
